Source: patent US20240287463A1, “INDUCIBLE TISSUE CONSTRUCTS AND USES THEREOF” (Massachusetts Institute of Technology, priority 2020, published 2024)

Key:
HUVECs = assay: vascular network in HUVEC/iCasp9-HDF microfluidic devices after fibroblast removal (dextran perfusion); assay type: cell-based, human
Description: More specifically, the molds for the 2-channel microfluidic devices were constructed using stereolithography (Proto Labs). Polydimethylsiloxane (PDMS) was cured at a standard mixing ratio overnight at 60° C. in the mold, and individual devices were cut and plasma-bonded to glass slides. To enhance ECM bonding to PDMS, the surface inside the tissue chamber of the devices was functionalized with 0.01% poly-L-lysine and 1% glutaraldehyde following plasma-activation and washed overnight in DI water. On the day of seeding, devices were soaked in 70% ethanol (EtOH) and dried. Acupuncture needles (300 μm diameter) (Hwato) were blocked in 0.1% (w/v) bovine serum albumin (BSA) (Sigma) in phosphate buffer saline (PBS) for 45 minutes and inserted through the two needle guides. Devices with needles were UV-sterilized for 15 minutes. Once the needles were inserted, a fibrinogen solution containing human umbilical vein endothelial cells (HUVECs) and growth-arrested human dermal fibroblasts (HDFs) were added into the tissue chamber with thrombin. To prepare the cells for seeding, HDFs or iCasp-9 HDFs were growth-arrested with 10 μg/mL mitomycin in FGM-2 for 2.5 hours and thoroughly washed 5 times in FBM. Both HUVECs and HDFs were lifted from culture plates using TrypLE Express (Gibco), centrifuged at 200 g for 4 minutes, and resuspended to a concentration of 20 million cells/mL in EGM-2. A solution of HUVECs (3 million cells/mL), HDFs or iCasp-9 HDFs (0, 1 million, 3 million, or 6 million cells/mL), fibrinogen (2.5 mg/mL), thrombin (1 U/mL) in EGM-2 was prepared for the bulk hydrogel region of each device. After the addition of thrombin, the solution was quickly injected into the tissue chamber, and the devices were repeatedly rotated while the solution crosslinked. Appropriate media was added to each well of the device, and the devices were placed in the incubator (37° C., 5% CO2). After 15 minutes, the needles were carefully removed from the devices to create 300 μm hollow channels between the wells. Each channel of the device was seeded with additional HUVECs at 2 million cells/ml for at least 5 minutes on each side (top and bottom) in the incubator. Each device received 200 μl of appropriate media daily and cultured on the rocker inside the incubator. Once the fibrinogen polymerized into fibrin, the needles were removed to create two hollow, microfluidic channels. These channels were then seeded with additional HUVECs to line the walls in a monolayer.
Vessel networks were analyzed by fixing all devices with 4% PFA for 30 minutes on a rocker and washing with PBS overnight at 4° C. The devices were then blocked in 3% BSA overnight at 4° C. Lectin (UEA DyLight 649, Vector Labs) was diluted in the blocking solution at 1:100 dilution and added to the devices for another 4° C. overnight incubation. Devices were then washed overnight with PBS at 4° C. and kept in PBS with 0.02% (w/v) sodium azide at 4° C. until imaging. Before imaging, a solution of 500 kDa fluorescein isothiocyanate (FITC)- or tetramethylrhodamine isothiocyanate (TRITC)-conjugated dextran (0.15 mg/ml) was added to one of the microfluidic channels to generate gravity-driven hydrostatic pressure between the two channels of the device. All device images were then captured by a Leica SP8 confocal microscope (Leica, Wetzlar, Germany) using either a Leica 10×/0.30NA W U—V-I WD-3.60 Water or 25×/0.95NA W VISIR WD-2.50 Water objective and Leica LAS X imaging software. […]

iCasp9-HDFs = assay: live imaging of fibroblast removal in the 3D microfluidic co-culture device; assay type: cell-based, human; conditions: 10 nM CID after 7 days of co-culture
Description: More specifically, the molds for the 2-channel microfluidic devices were constructed using stereolithography (Proto Labs). Polydimethylsiloxane (PDMS) was cured at a standard mixing ratio overnight at 60° C. in the mold, and individual devices were cut and plasma-bonded to glass slides. To enhance ECM bonding to PDMS, the surface inside the tissue chamber of the devices was functionalized with 0.01% poly-L-lysine and 1% glutaraldehyde following plasma-activation and washed overnight in DI water. On the day of seeding, devices were soaked in 70% ethanol (EtOH) and dried. Acupuncture needles (300 μm diameter) (Hwato) were blocked in 0.1% (w/v) bovine serum albumin (BSA) (Sigma) in phosphate buffer saline (PBS) for 45 minutes and inserted through the two needle guides. Devices with needles were UV-sterilized for 15 minutes. Once the needles were inserted, a fibrinogen solution containing human umbilical vein endothelial cells (HUVECs) and growth-arrested human dermal fibroblasts (HDFs) were added into the tissue chamber with thrombin. To prepare the cells for seeding, HDFs or iCasp-9 HDFs were growth-arrested with 10 μg/mL mitomycin in FGM-2 for 2.5 hours and thoroughly washed 5 times in FBM. Both HUVECs and HDFs were lifted from culture plates using TrypLE Express (Gibco), centrifuged at 200 g for 4 minutes, and resuspended to a concentration of 20 million cells/mL in EGM-2. […]

unmodified J2s = assay: CID exposure of MPCCs plated with unmodified fibroblasts; assay type: cell-based; conditions: data not shown
Description: (§1) Specifically, MPCC were fabricated as described previously (S. R. Khetani and S. N. Bhatia (2005) Nat. Biotechnol 26, 120; S. March et al. (2015) Nat. Protoc. 10, 2007). Briefly, collagen was adsorbed in each well of a 96 well plate (glass bottom), and then patterned using an elastomeric polydimethysiloxane mold and oxygen plasma gas ablation. Human hepatocytes were thawed and seeded (70 k/well) on the collagen islands (500 μm with 1,200 μm center-to-center spacing). Adhered hepatocytes (˜10 k/well) were allowed to spread overnight before fibroblasts were seeded for co-culture (7 k/well). Supernatant was collected from cultures every other day and stored at −20° C. Human albumin was quantified using an enzyme-linked immunosorbent assay using a sheep anti-rat albumin antibody (ELISA) (Bethyl Laboratories) and 3,3′,5,5′-tetramethylbenzidine (TMB, Thermo Fisher). Urea concentration was measured using a colorimetric (diacetylmonoxime) assay with acid and heat (Stanbio Labs). CYP3A4 activity was assessed with the luminogenic P450-GloTM CYP450 assay kit (Promega) for nonlytic assays using cultured cells. Cultures were pre-treated with 2 μM rifampin or 1:1,000 DMSO vehicle control prepared in hepatocyte maintenance media for 72 hours (daily replenishment) where indicated. […]

[1] = test system: primary human hepatocytes; assay: hepatocyte phenotypic stability (albumin production) in MPCC after fibroblast deletion; assay type: cell-based; conditions: CID at day 1, day 3 or day 7 of 2D MPCC
Description: as §1, with “cells.” for “cells. Cultures were pre-treated with 2 μM rifampin or 1:1,000 DMSO vehicle control prepared in hepatocyte maintenance media for 72 hours (daily replenishment) where indicated.”
To query the dependence of hepatocytes on fibroblasts, fibroblasts were deleted from MPCCs by CID treatment at various time points and albumin production was assessed as a surrogate marker of phenotypic stability.

Structure (SMILES): CC[C@H](C(=O)N1CCCC[C@H]1C(=O)O[C@H](CCc1ccc(OC)c(OC)c1)c1cccc(OCC(=O)NCC(CNC(=O)COc2cccc([C@@H](CCc3ccc(OC)c(OC)c3)OC(=O)[C@@H]3CCCCN3C(=O)[C@@H](CC)c3cc(OC)c(OC)c(OC)c3)c2)CN(C)C)c1)c1cc(OC)c(OC)c(OC)c1 [CID, AP20187]
- acute effects on HUVECs / noticeable deterioration of the vascular structure (HUVECs; 10 nM CID after 7 days of co-culture): not observed
- dextran transport of endothelial network at day 7 (HUVECs; 50 nM CID at day 0): none of these structures could transport dextran
- perfusion of endothelial network at day 7 (HUVECs; 50 nM CID at day 1): little to no perfusion
- endothelial network at day 7 (HUVECs; 50 nM CID at day 3 or day 5): highly interconnected and perfusable endothelial networks
- average diameter of the perfused vessels versus control (HUVECs; all conditions except day 0 deletion): comparable
- time by which most of the fibroblast population was removed (iCasp9-HDFs): ≤ 10 h
- time to rapid rounding of iCasp9-HDFs (iCasp9-HDFs): ≤ 5 h
- effect of CID exposure on unmodified J2s in MPCCs (unmodified J2s): unaffected
- hepatocyte phenotypic stability (albumin production) [1]: loss of hepatocyte phenotypic stability
